This is an account of results in patent US20020099073A1, “Modulators of protein tyrosine phosphatases (PTPases)” (priority 2000, published 2002).

pKi: −log10 of the molar value.

The assay has as its target T1, truncated form of PTP1B (corresponding to the first 321 amino acids) (Homo sapiens, UniProt P18031).
T1 construct: truncated form of PTP1B (corresponding to the first 321 amino acids); made in house; host or cells: E. coli
T1 sequence (P18031 1-321): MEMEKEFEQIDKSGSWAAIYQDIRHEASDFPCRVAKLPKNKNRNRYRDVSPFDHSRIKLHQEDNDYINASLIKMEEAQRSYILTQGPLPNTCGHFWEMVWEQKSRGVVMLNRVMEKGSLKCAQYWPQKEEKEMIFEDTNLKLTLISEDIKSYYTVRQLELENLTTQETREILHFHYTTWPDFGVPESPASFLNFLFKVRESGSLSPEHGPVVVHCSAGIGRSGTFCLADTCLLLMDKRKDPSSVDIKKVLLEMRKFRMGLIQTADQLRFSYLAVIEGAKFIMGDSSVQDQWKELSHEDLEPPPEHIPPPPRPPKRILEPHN
Put plainly: Inhibition of PTP1B, p-nitrophenyl phosphate substrate. Type of assay: biochemical. The conditions noted are these: substrate p-nitrophenyl phosphate 0.16 to 10 mM; 100 mM sodium acetate pH 5.5; 25° C. for 60 minutes; absorbance at 405 nm. The procedure:
The compounds are evaluated for biological activity with a truncated form of PTP1B (corresponding to the first 321 amino acids), which was expressed in E. coli and purified to apparent homogeneity using published procedures well-known to those skilled in the art. The enzyme reactions are carried out using standard conditions essentially as described by Burke et al. (Biochemistry 35; 15989-15996 (1996)). The assay conditions are as follows. Appropriate concentrations of the compounds of the invention are added to the reaction mixtures containing different concentrations of the substrate, p-nitrophenyl phosphate (range: 0.16 to 10 mM—final assay concentration). The buffer used was 100 mM sodium acetate pH 5.5, 50 mM sodium chloride, 0.1% (w/v) bovine serum albumin and 5 mM dithiothreitol (total volume […]). The reaction was started by addition of the enzyme and carried out in microtiter plates at 25° C. for 60 minutes. The reactions are stopped by addition of NaOH. The enzyme activity was determined by measurement of the absorbance at 405 nm with appropriate corrections for absorbance at 405 nm of the compounds and p-nitrophenyl phosphate. The data are analyzed using nonlinear regression fit to classical Michaelis Menten enzyme kinetic models. Inhibition is expressed as Ki values in μM.
As to `O=C(O)C(=O)Nc1sc2c(c1C(=O)O)CC(CNC(=O)c1cccc(O)c1)NC2` (centres unmarked) [Example 19, 5-((3-Hydroxy-benzoylamino)methyl)-2-(oxalyl-amino)-4,5,6,7-tetrahydro-thieno[2,3-c]Pyridine-3-carboxylic Acid], the pKi was 6.02. Then `CC(=O)Nc1ccc(S(=O)(=O)NC[C@H]2Cc3c(sc(NC(=O)C(=O)O)c3C(=O)O)CN2)cc1` [Example 28, 5-(R)-((4-Acetylamino-benzenesulfonylamino)methyl)-2-(oxalyl-amino)-4,5,6,7-tetrahydro-thieno[2,3-c]pyridine-3-carboxylic Acid], with 5.46; and `O=C(O)C(=O)Nc1sc2c(c1C(=O)O)CC(CNC(=O)c1cc3ccccc3[nH]1)NC2` (centres unmarked) [Example 14], with 6.17; and `CC(=O)Nc1ccc(S(=O)(=O)NC[C@@H]2Cc3c(sc(NC(=O)C(=O)O)c3C(=O)O)CN2)cc1` [Example 29, 5-(S)-((4-Acetylamino-benzenesulfonylamino)methyl)-2-(oxalyl-amino)-4,5,6,7-tetrahydro-thieno[2,3-c]pyridine-3-carboxylic Acid], with 6.89. The compound `O=C(O)C(=O)Nc1sc2c(c1C(=O)O)CC(CNC(=O)c1ccccc1)NC2` (centres unmarked) [Example 1, 5-(Benzoylamino-methyl)-2-(oxalyl-amino)-4,5,6,7-tetrahydro-thieno[2,3-c]Pyridine-3-carboxylic Acid] had a pKi of 6.28. Regarding `O=C(O)C(=O)Nc1sc2c(c1C(=O)O)C[C@@H](CNC(=O)c1cc3ccccc3cc1O)NC2` [Example 24, 5-(S)-(((3-Hydroxy-naphthalene-2-carbonyl)amino)methyl)-2-(oxalyl-amino) 4,5,6,7-tetrahydro-thieno[2,3-c]pyridine-3-carboxylic Acid], the pKi is 6.66. Against the preceding compound, the pKi is 0.38 log units higher.

For the compound `O=C(O)C(=O)Nc1sc2c(c1C(=O)O)CC(CNC(=O)c1ccc(NC(=O)c3ccccc3)cc1)NC2` (centres unmarked) [Example 5, 5-((4-Benzoylamino-benzoylamino)methyl)-2-(oxalyl-amino)-4,5,6,7-tetrahydro-thieno[2,3-c]pyridine-3-carboxylic Acid], the pKi was 6.60. In turn, `COc1ccc(CN2Cc3sc(NC(=O)C(=O)O)c(C(=O)O)c3CC2CNC(=O)c2cc(-c3ccc(C)cc3)nc3ccc(Br)cc23)cc1` (centres unmarked) [Example 2, 5-(((6-Bromo-2-p-tolyl-quinoline-4-carbonyl)amino)methyl)-6-(4-methoxy-benzyl)-2-(oxalyl-amino)-4,5,6,7-tetrahydro-thieno[2,3-c]pyridine-3-carboxylic Acid] gave a pKi of 4.00. In turn, “5-(Benzyloxycarbonylamino-methyl)-2-(oxalyl-amino)-4,5,6,7-tetrahydro-thieno[2,3-c]pyridine-3-carboxylic acid and 7-(benzyloxycarbonylamino-methyl)-2-(oxalyl-amino)-4,5,6,7-tetrahydro-thieno[2,3-c]pyridine-3-carboxylic Acid [Example 17]” gave a pKi of 5.82. In the case of `COc1ccc(CN2Cc3sc(NC(=O)C(=O)O)c(C(=O)O)c3CC2CNC(=O)c2ccc(NC(=O)c3ccccc3)cc2)cc1` (centres unmarked) [Example 4] it was 5.52; in that of `O=C(O)C(=O)Nc1sc2c(c1C(=O)O)C[C@@H](CNC(=O)c1ccc(NC(=O)c3ccccc3)cc1)NC2` [Example 21, 5-((4-Benzoylamino-benzoylamino)methyl)-2-(oxalyl-amino)-4,5,6,7-tetrahydro-thieno[2,3-c]pyridine-3-carboxylic Acid], 6.80. `O=C(O)C(=O)Nc1sc2c(c1C(=O)O)CC(CNC(=O)c1ccc(-c3ccccc3)cc1)NC2` (centres unmarked) [Example 9, 5-(((Biphenyl-4-carbonyl)amino)methyl)-2-(oxalyl-amino)-4,5,6,7-tetrahydro-thieno[2,3-c]pyridine-3-carboxylic Acid]: the pKi was 6.66. With `O=C(O)C(=O)Nc1sc2c(c1C(=O)O)C[C@H](CNC(=O)c1ccc(NC(=O)c3ccccc3)cc1)NC2` [Example 22, 5-(R)-((4-Benzoylamino-benzoylamino)methyl)-2-(oxalyl-amino)-4,5,6,7-tetrahydro-thieno[2,3-c]pyridine-3-carboxylic Acid], the pKi was 5.49.

On to `O=C(O)C(=O)Nc1sc2c(c1C(=O)O)C[C@@H](CNC(=O)c1ccc3ccccc3c1O)NC2` [Example 23, 5-(S)-(((1-Hydroxy-naphthalene-2-carbonyl)amino)methyl)-2-(oxalyl-amino)-4,5,6,7-tetrahydro-thieno[2,3-c]pyridine-3-carboxylic Acid], for which the pKi is 6.82. As for `COc1ccc(CN2Cc3sc(NC(=O)C(=O)O)c(C(=O)O)c3CC2CNC(=O)c2cccc3ccccc23)cc1` (centres unmarked) [Example 16, 6-(4-Methoxybenzyl)-5-(((naphthalene-1-carbonyl)amino)methyl)-2-(oxalyl-amino)-4,5,6,7-tetrahydro-thieno[2,3-c]pyridine-3-carboxylic Acid], the negative-log Ki (pKi) is 4.70.

For the compound `COc1ccc(CN2Cc3sc(NC(=O)C(=O)O)c(C(=O)O)c3CC2CNC(=O)c2nn(-c3ccccc3)nc2C)cc1` (centres unmarked) [Example 6, 6-(4-Methoxy-benzyl)-5-(((5-methyl-2-phenyl-2H-[1,2,3]triazole-4-carbonyl)-amino)methyl)-2-(oxalyl-amino)-4,5,6,7-tetrahydro-thieno[2,3-c]pyridine-3-carboxylic Acid], the pKi was 4.70. For `CCOc1ccc(C(=O)NCC2Cc3c(sc(NC(=O)C(=O)O)c3C(=O)O)CN2)c(O)c1` (centres unmarked) [Example 10, 5-((4-Ethoxy-2-hydroxy-benzoylamino)methyl)-2-(oxalyl-amino)-4,5,6,7-tetrahydro-thieno[2,3-c]pyridine-3-carboxylic Acid], the negative logarithm of the Ki (pKi) is 6.47. This pKi lies 1.77 log units higher than the previous one.

For the compound `COc1ccc2cc(O)c(C(=O)NC[C@@H]3Cc4c(sc(NC(=O)C(=O)O)c4C(=O)O)CN3)cc2c1` [Example 25, 5-(S)-(((3-Hydroxy-7-methoxy-naphthalene-2-carbonyl)amino)methyl)-2-(oxalyl-amino)-4,5,6,7-tetrahydro-thieno[2,3-c]pyridine-3-carboxylic Acid], the negative logarithm of the Ki (pKi) was 6.68. On to `O=C(NC[C@@H]1Cc2c(sc(NC(=O)C(=O)O)c2C(=O)O)CN1)Nc1ccc(Oc2ccccc2)cc1` [Example 27, 2-(Oxalyl-amino)-5-(S)-(3-(4-phenoxy-phenyl)ureidomethyl)-4,5,6,7-tetrahydro-thieno[2,3-c]pyridin-3-carboxylic Acid], for which the pKi was 6.70. Compound `COc1ccc(CN2Cc3sc(NC(=O)C(=O)O)c(C(=O)O)c3CC2CNC(=O)c2cc3cc(OCc4ccccc4)ccc3[nH]2)cc1` (centres unmarked) [Example 3, 5-(((5-Benzyloxy-1H-indole-2-carbonyl)amino)methyl)-6-(4-methoxy-benzyl)-2-(oxalyl-amino)-4,5,6,7-tetrahydro-thieno[2,3-c]pyridine-3-carboxylic Acid] showed a pKi of 5.37.

`Cc1nn(-c2ccccc2)nc1C(=O)NCC1Cc2c(sc(NC(=O)C(=O)O)c2C(=O)O)CN1` (centres unmarked) [Example 11, 5-(((5-Methyl-2-phenyl-2H-[1,2,3]triazole-4-carbonyl)amino]methyl)-2-(oxalyl-amino)-4,5,6,7-tetrahydro-thieno[2,3-c]pyridin-3-carboxylic Acid] gave a pKi of 5.82. In turn, `O=C(O)C(=O)Nc1sc2c(c1C(=O)O)C[C@@H](CNC(=O)c1cccc(Oc3ccccc3)c1)NC2` [Example 20, 2-(Oxalyl-amino)-5-(S)-((3-phenoxy-benzoylamino)methyl)-4,5,6,7-tetrahydro-thieno[2,3-c]pyridine-3-carboxylic Acid] showed a negative logarithm of the Ki (pKi) of 6.57.

`O=C(O)C(=O)Nc1sc2c(c1C(=O)O)CC(CNC(=O)c1ccccc1O)NC2` (centres unmarked) [Example 18, 5-((2-Hydroxy-benzoylamino)-methyl)-2-(oxalyl-amino)-4,5,6,7-tetrahydro-thieno[2,3-c]pyridine-3-carboxylic Acid]: the pKi is 6.17.
